Test results: patent US10118943B2, “Compounds and methods for inhibiting cell death” (Ramot at Tel-Aviv University Ltd., priority 2012, dated 2018)
Entries after “also recorded” stand apart in the source; their conditions may differ.

Legend:
[1] = target: T1, full-length human EB3 recombinant protein (Homo sapiens, UniProt Q9UPY8); test: Sulfolink coupling gel-NAP affinity chromatography with recombinant EB3, western analysis; assay type: binding; settings: 2 mg soluble peptide incubated with recombinant EB3 and column beads
T1 construct: Full-length human EB3 was subcloned into pEX-N-His vector; 6xHis (N, cleaved yes); made in house; host or cells: E. coli BL21(DE3)
Procedure: Column load, flow through, wash and elution fractions were further analyzed by polyacrylamide gel electrophoresis, followed by western analysis with EB3 antibodies. […] Column chromatography, elution and western blots were performed as above. The extract fractions (flow, wash and elution) were separated by electrophoresis followed by protein detection (FIG. 6).

[2] = system: ADNP+/− mice; test: Object recognition test in ADNP-deficient mice; assay type: in vivo, mouse; settings: intranasal, twice a day, 1 month, ADNP+/− male mice
Description: All procedures involving animals were approved by the Animal Care and Use Committee of Tel Aviv University and the National Institutes of Health (Bethesda, Md.). ADNP heterozygous mice, a model for cognitive impairments (Vulih-Shultzman et al., 2007, J. Pharmacol. Exp. Ther. 323:438-449), were housed in a 12-h light/12-h dark cycle facility, and free access to rodent chow and water was available.
SKIP (SEQ ID NO:6) treatment included daily intranasal administrations over a 1 month period to 5-month-old male mice (2 μg/5 μl/mouse/day). For intranasal administration, the peptide was dissolved in a vehicle solution, in which each milliliter included 7.5 mg of NaCl, 1.7 mg of citric acid monohydrate, 3 mg of disodium phosphate dihydrate, and 0.2 mg of benzalkonium chloride solution (50%). SKIP (SEQ ID NO:6) or vehicle solution (DD) was administered to mice hand-held in a semisupine position with nostrils facing the investigator. A pipette tip was used to administer 5 μl/each nostril. The mouse was handheld until the solution was totally absorbed (˜10 s). Nasal SKIP (SEQ ID NO:6) application was performed daily, twice a day, for 1 month (5 days a week). After 1 month, SKIP (SEQ ID NO:6) was applied 2 h before the behavioral tests (described below).
The test includes 2 consecutive days of habituation (five minutes per day) and the experimental day which consists of the three phases. The test was conducted two hours after the daily intranasal SKIP (SEQ ID NO:6). During the first phase (Phase 1, habituation phase), the open field apparatus (arena of 50×50 cm) contained two identical objects (samples) and a mouse was placed in the apparatus facing the wall and allowed to freely explore the objects. At the end of the 5-min session of Phase 1, the mouse was put back into its home cage for 3 hours. […] The time spent sniffing/touching each object was measured. The data was analyzed using the following formula: D1=b−a, when ‘a’ designated the time of exploration of the familiar object and ‘b’ designated the time of exploration of the novel object. […]

[3] = system: PC12 cells; test: PC12 cell survival assay, zinc toxicity, MTS (Example 1); settings: 400 μM zinc, 4 hrs, peptide 10^−9M
Procedure: PC12 cells (Pheochromocytoma cells) (ATCC, Bethesda, Md., USA) were seeded at 3×10^4 cells/cm^2 on poly-L-Lysine coated plastic tissue culture dishes (Corning, Lowell, Mass., USA) to form an adherent monolayer. Cells were maintained in Dulbecco's modified Eagle's medium (DMEM) supplemented with 10% horse serum (HS), 5% fetal calf serum (FCS), 2 mM glutamine, 100 U/ml penicillin and […] streptomycin (Biological Industries, Beit Haemek, Israel). PC12 differentiation was induced by nerve growth factor (NGF, Sigma) at concentrations of 50 ng/ml by replacing half of the medium every other day until the cells acquired a differentiated morphology. Differentiated cells were defined as bearing two or more neurites with lengths equal to or more than twice the diameter of the cell body (P. Lamoureux et al., The Journal of cell biology 110, 71 (January, 1990)). The cells were incubated in 5% CO2 in a humidified incubator at 37° C. The cells were sub-cultured every 5 days at a 4:1 split ratio by pipetting. The medium was changed every 2 or 3 days after adhesion.
Transfections were performed using Lipofectamine RNAiMAX (Invitrogen). Transfection was carried out according to manufacturer's protocol. For rat MAPRE3 knockdown, PC12 cells or neurons were plated in growth medium without antibiotics at concentration of 10^4 cells/0.32 cm^2 such that they will be 30-50% confluent at the time of transfection. To obtain the highest transfection efficiency and low non-specific effects, siRNA transfection was performed in the following optimized conditions: 50 nM for neurons and 25 nM PC12 of each siRNA construct with 0.2 μl Lipofectamine RNAiMAX (Invitrogen) was added per well of the 96-well plate and scaled up for different 24 or 6-well plates, according to the manufacturer's instructions. The medium was changed one day after transfection. 48 and 72 hours later, cells were harvested to assay for gene knockdown at the RNA and protein levels.
The cells were incubated for 4 hrs at 37° C. 5% CO2. Survival was measured using the MTS assay.
Metabolic activity of cells was measured by the CellTiter 96® Aqueous Non-Radioactive Cell Proliferation kit in accordance with the manufacturer's instructions (Promega). The assay uses a colorimetric method for determining the number of viable cells employing a tetrazolium compound [3-(4,5-dimethylthiazol-2-yl)-5-(3-carboxymethoxyphenyl)-2-(4-sulfophenyl)-2H-tetrazolium, MTS] and an electron-coupling reagent, phenazine methosulfate (PMS). MTS is bio-reduced by cells into a formazan product that is detected at 490 nm. The conversion of MTS into the formazan form is accomplished by dehydrogenase enzymes found in metabolically active cells. Thus, the quantity of formazan product as measured by the amount of 490 nm absorbance is directly proportional to the number of living cells in culture (A. H. Cory, T. C. Owen, J. A. Barltrop, J. G. Cory, Cancer Commun 3, 207 (July, 1991)).

T1 sequence (Q9UPY8 whole entry): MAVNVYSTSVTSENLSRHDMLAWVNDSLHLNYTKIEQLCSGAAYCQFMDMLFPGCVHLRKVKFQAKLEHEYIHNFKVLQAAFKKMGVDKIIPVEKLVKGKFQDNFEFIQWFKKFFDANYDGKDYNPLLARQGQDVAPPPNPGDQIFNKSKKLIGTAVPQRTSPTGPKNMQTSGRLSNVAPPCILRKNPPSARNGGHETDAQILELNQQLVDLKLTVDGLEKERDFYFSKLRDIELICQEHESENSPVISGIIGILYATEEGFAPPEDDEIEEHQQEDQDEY

NAPVSKIPQ (synthetic novel peptide core sequence SKIP derived from hybrid microtubule end-binding protein 3 (EB3)- binding microtubule plus-end tracking proteins (+TIPs) and activity-dependent neurotrophic factor (ADNF) active core site (NAP))
competition for EB3 binding to column-bound NAP [1]: no binding of EB3 to the column bound NAP
object recognition, Phase 2 short retention (discrimination index D1) [2]: improved the memory
protection against cell death induced by zinc toxicity (MTS survival) [3]: provided protection against zinc toxicity; also recorded: significantly increased survival
protection against cell death induced by zinc toxicity (MTS survival) ([3]; listed as SKIP): significantly increased survival
